{"source": "patent US10471080B2", "about": "“Use of trehalose for prevention of neural tube defects” (UNIVERSITY OF MARYLAND, BALTIMORE, priority 2012, dated 2019)", "key": {"NTDs": {"test_system": "NTDs", "conditions": "cited from earlier work"}, "LC3-II [1]": {"test_system": "LC3-II", "test": "LC3-II levels in cultured E8 embryos under high glucose with or without Chloroquine", "conditions": "high glucose 250 mg/dl, 25 μmol/L Chloroquine"}, "neuroepithelial cells": {"test_system": "neuroepithelial cells", "test": "Electron microscopy of autophagosomes and mitochondria in E8.75 neuroepithelia", "type": "in vivo, mouse", "text": "Electron microscopy. The structures of autophagosome and mitochondria were examined by transmission electron microscopy (EM) in the University of Maryland EM core facility. Thick sections (1 μm) were cut and visualized at ×100 magnifications to identify the neuroepithelia of E8.75 embryos. Thin sections (80 nm) of identified neuroepithelia were cut and viewed with an electron microscope (Joel JEM-1200EX; Tokyo, Japan) under high-power resolution (10, 12 and 25 K) for identification of cellular organelle structures."}, "[2]": {"test_system": "4-HNE, MDA, nitrotyrosine or ubiquitin-modified proteins", "test": "Levels of oxidized and ubiquitin-modified (dysfunctional) proteins in E8.75 embryos", "type": "in vivo, mouse", "conditions": "diabetic group with 5% trehalose"}, "[3]": {"test_system": "embryonic neuroepithelial cells", "test": "GFP-LC3 puncta analysis in GFP-LC3 transgenic mice", "type": "in vivo, mouse", "protocol": "GFP-LC3 puncta analysis. GFP-LC3 transgenic (Tg) mice were used to quantify autophagy in vivo. E8.75 embryos were gathered, fixed in 4% paraformaldehyde (PFA) in PBS for 30 min at 4° C., quickly frozen, and cryosectioned at […] GFP florescent images in embryonic neuroepithelial cells were recorded by confocal microscopy using a laser scanning microscope (LSM 510 META, ZEISS). GFP-LC3 punctate foci with a diameter greater than or equal to 20 pixels in each cell were calculated by Image J software according to the manufacturer's manual."}, "autophagy": {"test_system": "autophagy", "conditions": "in vitro; cited from earlier work"}, "[4]": {"test_system": "neurogenesis in the developing neural tube", "test": "Immunofluorescent staining of TuJ1 and Sox1 in developing neural tubes (neurogenesis)", "type": "in vivo, mouse", "conditions": "neural tubes exposed to diabetes", "protocol": "Immunofluorescent staining. […] Deparaffinized sections were incubated with TuJ 1 antibody (Covance, #MMS-435P) at 1:400 dilution or Sox1 antibody (Cell Signaling, #4194) at 1:100 dilution in PBS with 10% heat-inactivated donkey serum overnight at 4° C. After washes in PBS, sections were incubated with secondary antibodies, Alexa Fluor® 488 Donkey Anti-Mouse IgG to TuJ1, and Alexa Fluor® 594 Donkey Anti-Rabbit IgG to Sox1. Cell nuclei were stained with DAPI (Blue). Immunofluorescent staining was examined by immunofluorescence microscopy. In order to visualize neurogenesis throughout the anterior neural tube, serial sections through the entire anterior neural tube were analyzed and representative images were shown. The earliest neurogenesis site was found at the boundary of midbrain and hindbrain. Five embryos from five dams per group were analyzed."}, "[5]": {"test_system": "ULK1, Beclin 1, Atg3, Atg5, Ambra1, p62, Dap", "test": "Autophagy-related gene expression in E8.75 embryos", "type": "in vivo, mouse", "conditions": "diabetic group"}, "[6]": {"test_system": "maternal diabetes-induced NTDs", "test": "In vivo mouse model of diabetic embryopathy, morphologic assessment of NTDs at E11.5", "protocol": "In vivo mouse model of diabetic embryopathy and morphologic assessment of NTDs. The mouse model of diabetic embryopathy was previously described (21, 22). Briefly, female mice were intravenously (i.v.) injected daily with 75 mg/kg streptozotocin (STZ) over two days to induce diabetes. Nondiabetic WT with vehicle injection served as controls. Diabetes was defined as 12-hour fasting blood glucose levels ≥250 mg/dl, which normally occurred at 3-5 days after STZ injections. There is no residual toxic effect caused by STZ in this animal model. Embryos were gathered at E8.75 (2:00 PM at E8.5) for analysis and at E11.5 from NTD examination.\n(§1) Trehalose treatment and trehalose measurement. Concentrations of either 2% or 5% (gram/volume [ml]) trehalose (Cat#: T9531, Sigma) were given to WT nondiabetic and diabetic pregnant mice at E5.5 in drinking water. Trehalose levels in maternal serum and embryos were determined by the Trehalose Kit from Megazyme (Wicklow, Ireland).\nStatistical analyses. Statistical differences were determined by Student's t-test for two group comparisons and One way ANOVA for more than two groups comparisons using SigmaStat 3.5 software. In ANOVA analysis, Tukey-test was used to estimate the significance of the results. Significant difference between groups in NTD incidence was analyzed by Chi-square test."}, "LC3-II [7]": {"test_system": "LC3-II", "test": "LC3-II levels in E8.75 embryos", "type": "in vivo, mouse", "conditions": "E8.75 embryos of diabetic dams"}, "[8]": {"test_system": "neuroepithelial cell apoptosis", "test": "Pro-apoptotic Bcl-2 members, caspase cleavage and TUNEL assay in E8.75 embryos", "type": "in vivo, mouse", "conditions": "diabetic group with 5% trehalose", "protocol": "TUNEL assay. TUNEL assay was performed as previously described (21, 22). Briefly, 5-μm serial coronal sections through the forebrain-midbrain (FB-MB) boundary of the anterior neural tube were fixed with 4% PFA in PBS and incubated with TUNEL reaction agents. Closure at the FB-MB boundary is an essential step for closure of the anterior neural tube, and failed closure in this area results in exencephaly (2, 8). TUNEL-positive cells were counted in the neural tube area of each section. Based on the counting of total cell nuclei, the sizes of the neural tube areas of each section were relatively constant. Thus, apoptotic cell numbers were expressed as total TUNEL-positive cells per neural tube area. TUNEL assays were performed without the observer knowing the experimental group of the embryo examined."}, "[9]": {"test": "Trehalose measurement in maternal serum and embryos (Trehalose Kit, Megazyme)", "type": "in vivo, mouse", "conditions": "diabetic dams", "protocol": "as §1"}, "[10]": {"test_system": "ER stress and JNK1/2 activation", "test": "ER stress markers and JNK1/2 activation in E8.75 embryos", "type": "in vivo, mouse", "conditions": "diabetic group with 5% trehalose"}}, "data": [{"smiles": "O[C@H]1[C@H](O)[C@@H](O)[C@H](O)[C@@H](O)[C@H]1O", "note": "[inositol]", "values": [{"measurement": "folate-resistant NTDs", "setting": "NTDs", "result": "can prevent some of the folate-resistant NTDs"}]}, {"smiles": "CCN(CC)CCCC(C)Nc1ccnc2cc(Cl)ccc12", "note": "(centres unmarked) [Chloroquine]", "values": [{"measurement": "high glucose-induced LC3-II reduction", "setting": "LC3-II [1]", "result": "did not block high glucose-induced LC3-II reduction"}]}, {"smiles": "OC[C@H]1O[C@H](O[C@H]2O[C@H](CO)[C@@H](O)[C@H](O)[C@H]2O)[C@H](O)[C@@H](O)[C@@H]1O", "note": "[trehalose]", "values": [{"measurement": "number of defective mitochondria", "setting": "neuroepithelial cells; diabetic conditions, E8.75 neuroepithelia", "result": "significantly reduced the number of defective mitochondria to a level comparable to that in the nondiabetic control group"}, {"measurement": "autophagosome formation in neuroepithelial cells", "setting": "neuroepithelial cells; diabetic group, E8.75", "result": "blocked maternal diabetes-repressed autophagosome formation"}, {"measurement": "levels of 4-HNE, MDA, nitrotyrosine or ubiquitin-modified proteins", "setting": "[2]", "result": "blocked maternal diabetes-increased levels of all of these modified proteins"}, {"measurement": "number of autophagic GFP-LC3 puncta in neuroepithelial cells", "setting": "[3]; diabetic group treated with trehalose, E8.75", "result": "restored to the level of that observed in the nondiabetic groups"}, {"measurement": "basal autophagy activities in neuroepithelial cells", "setting": "[3]; nondiabetic group", "result": "did not affect basal autophagy activities"}, {"measurement": "autophagy stimulating activities", "setting": "autophagy", "result": "possess autophagy stimulating activities in vitro"}, {"measurement": "differentiation of Sox1 positive neural progenitors", "setting": "[4]", "result": "corrected maternal diabetes-blocked differentiation of Sox1 positive neural progenitors"}, {"measurement": "neurogenesis (TuJ1 expressing neurons)", "setting": "[4]; E9.0 to E10.5", "result": "reversed delayed neurogenesis"}, {"measurement": "expression of ULK1, Beclin 1, Atg3, Atg5, and Ambra1", "setting": "[5]", "result": "blocked the downregulation"}, {"measurement": "expression of p62 and Dap", "setting": "[5]", "result": "blocked"}, {"measurement": "maternal diabetes-induced NTDs", "setting": "[6]; 2% trehalose, diabetic dams, lesser extent than 5%", "result": "significantly reduced maternal diabetes-induced NTDs"}, {"measurement": "NTD rate", "setting": "[6]; Diabetic + 2% trehalose in drinking water from E5.5, E11.5, total NTD embryos/total embryos", "result": 9.8, "unit": "%"}, {"measurement": "Resorption Rates", "setting": "[6]; Diabetic + 2% trehalose, E11.5", "result": 4.7}, {"measurement": "Total NTD Embryos", "setting": "[6]; Diabetic + 2% trehalose, E11.5, of 41 total embryos", "result": 4}, {"measurement": "NTD rate", "setting": "[6]; Nondiabetic + 2% trehalose in drinking water from E5.5, E11.5, total NTD embryos/total embryos", "result": 0, "unit": "%"}, {"measurement": "Resorption Rates", "setting": "[6]; Nondiabetic + 2% trehalose, E11.5", "result": 4.8}, {"measurement": "Total NTD Embryos", "setting": "[6]; Nondiabetic + 2% trehalose, E11.5, of 29 total embryos", "result": 0}, {"measurement": "NTD rate", "setting": "[6]; embryos from diabetic dams treated with 5% trehalose water (weight/volume), calculated by litters", "result": "4.0±2.2", "unit": "%"}, {"measurement": "NTD rate", "setting": "[6]; embryos from nondiabetic dams with or without trehalose treatment", "result": "0.0±0.0", "unit": "%"}, {"measurement": "Resorption Rates", "setting": "[6]; nondiabetic and diabetic dams with or without trehalose treatments", "result": "did not differ"}, {"measurement": "LC3-II expression", "setting": "LC3-II [7]", "result": "restored maternal diabetes-diminished LC3-II expression"}, {"measurement": "BID cleavage", "setting": "[8]", "result": "prevented"}, {"measurement": "caspase 3 and 8 cleavage", "setting": "[8]", "result": "abolished maternal diabetes-induced caspase 3 and 8 cleavage"}, {"measurement": "level of phosphorylated Bad", "setting": "[8]", "result": "restored"}, {"measurement": "neuroepithelial cell apoptosis (TUNEL)", "setting": "[8]", "result": "blocked neuroepithelial cell apoptosis"}, {"measurement": "embryonic trehalose levels", "setting": "[9]; 2% group", "result": "15.8±1.0", "unit": "μg/g tissue"}, {"measurement": "trehalose in maternal blood", "setting": "[9]; 2% trehalose in drinking water", "result": "162.0 ± 16.9", "unit": "µg/mL"}, {"measurement": "embryonic trehalose levels", "setting": "[9]; 5% group", "result": "53.9±3.7", "unit": "μg/g tissue"}, {"measurement": "trehalose in maternal blood", "setting": "[9]; 5% trehalose in drinking water", "result": "503.9 ± 19.3", "unit": "µg/mL"}, {"measurement": "JNK1/2 activation and downstream effector c-Jun", "setting": "[10]", "result": "completely abolished maternal diabetes-induced JNK1/2 activation"}, {"measurement": "XBP1 mRNA splicing", "setting": "[10]", "result": "diminished XBP1 mRNA splicing"}, {"measurement": "expression or phosphorylation of ER chaperone proteins BiP, CHOP, eIF2α", "setting": "[10]", "result": "abrogated maternal diabetes-increased expression or phosphorylation"}, {"measurement": "expression of 7 ER chaperone genes", "setting": "[10]; mRNA", "result": "abolished"}]}]}
